The values below come from ChEMBL document CHEMBL5291721, “A preclinical secondary pharmacology resource illuminates target-adverse drug reaction associations of marketed drugs” (Nat Commun, 2023).

Test [1] deals with T1, Alpha-2A adrenergic receptor (Homo sapiens, UniProt P08913).
T1 sequence (P08913 whole entry): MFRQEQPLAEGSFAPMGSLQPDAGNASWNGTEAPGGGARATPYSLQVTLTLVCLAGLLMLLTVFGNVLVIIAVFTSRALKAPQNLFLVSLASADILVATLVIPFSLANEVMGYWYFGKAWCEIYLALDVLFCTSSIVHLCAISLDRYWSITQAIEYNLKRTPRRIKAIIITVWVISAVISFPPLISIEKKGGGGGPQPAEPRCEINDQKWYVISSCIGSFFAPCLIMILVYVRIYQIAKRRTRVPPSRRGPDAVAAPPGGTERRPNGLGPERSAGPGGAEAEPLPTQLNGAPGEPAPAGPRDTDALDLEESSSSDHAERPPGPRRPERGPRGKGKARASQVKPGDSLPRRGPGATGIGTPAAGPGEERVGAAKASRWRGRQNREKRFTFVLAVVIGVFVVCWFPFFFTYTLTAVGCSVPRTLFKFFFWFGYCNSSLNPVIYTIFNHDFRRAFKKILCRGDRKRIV
It is filed as functional, cell-based.

The target in test [2] is T2, 5-hydroxytryptamine receptor 3A (Homo sapiens, UniProt P46098).
T2 sequence (P46098 whole entry): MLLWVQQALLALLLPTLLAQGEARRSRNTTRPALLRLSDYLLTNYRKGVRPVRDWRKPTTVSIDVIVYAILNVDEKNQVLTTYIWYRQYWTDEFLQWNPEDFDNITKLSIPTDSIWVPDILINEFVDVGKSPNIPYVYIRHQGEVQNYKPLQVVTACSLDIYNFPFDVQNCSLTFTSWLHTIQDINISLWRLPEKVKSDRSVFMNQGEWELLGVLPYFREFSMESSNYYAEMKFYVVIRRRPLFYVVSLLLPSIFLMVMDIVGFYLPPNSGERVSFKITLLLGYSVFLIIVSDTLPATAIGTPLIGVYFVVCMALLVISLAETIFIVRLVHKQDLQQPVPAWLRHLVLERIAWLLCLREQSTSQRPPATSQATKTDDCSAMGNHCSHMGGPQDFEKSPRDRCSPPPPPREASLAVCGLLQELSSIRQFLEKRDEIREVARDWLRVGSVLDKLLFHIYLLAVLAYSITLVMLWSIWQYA
Format: functional.

The next test has as its target T3, Adenosine receptor A3 (Homo sapiens, UniProt P0DMS8).
T3 sequence (P0DMS8 whole entry): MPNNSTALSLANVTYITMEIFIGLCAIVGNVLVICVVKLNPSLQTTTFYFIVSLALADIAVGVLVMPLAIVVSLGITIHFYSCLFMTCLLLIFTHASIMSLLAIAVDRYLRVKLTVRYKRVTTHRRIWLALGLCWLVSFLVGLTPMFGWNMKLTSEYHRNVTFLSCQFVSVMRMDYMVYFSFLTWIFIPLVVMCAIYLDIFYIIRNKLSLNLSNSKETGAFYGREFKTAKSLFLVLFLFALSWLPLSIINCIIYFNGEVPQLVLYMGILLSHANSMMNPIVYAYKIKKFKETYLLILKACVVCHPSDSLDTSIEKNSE

The next test deals with D(1A) dopamine receptor (Homo sapiens, UniProt P21728). It is filed as functional, cell-based.
Sequence of D(1A) dopamine receptor (P21728 whole entry): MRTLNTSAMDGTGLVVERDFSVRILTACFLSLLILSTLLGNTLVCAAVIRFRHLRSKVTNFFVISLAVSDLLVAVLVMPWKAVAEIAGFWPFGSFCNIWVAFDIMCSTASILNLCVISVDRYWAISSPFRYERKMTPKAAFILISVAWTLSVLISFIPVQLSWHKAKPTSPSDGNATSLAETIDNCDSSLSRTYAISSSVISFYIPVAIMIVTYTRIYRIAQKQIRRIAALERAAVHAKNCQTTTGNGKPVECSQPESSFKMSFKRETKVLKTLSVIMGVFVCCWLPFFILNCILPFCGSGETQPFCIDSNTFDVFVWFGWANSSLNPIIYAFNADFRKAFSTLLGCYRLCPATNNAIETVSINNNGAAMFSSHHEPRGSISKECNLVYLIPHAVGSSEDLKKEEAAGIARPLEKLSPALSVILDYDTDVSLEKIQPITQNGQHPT
Test [3] deals with 5-hydroxytryptamine receptor 2B (Homo sapiens, UniProt P41595). Format: functional, cell-based.
Sequence of 5-hydroxytryptamine receptor 2B (P41595 whole entry): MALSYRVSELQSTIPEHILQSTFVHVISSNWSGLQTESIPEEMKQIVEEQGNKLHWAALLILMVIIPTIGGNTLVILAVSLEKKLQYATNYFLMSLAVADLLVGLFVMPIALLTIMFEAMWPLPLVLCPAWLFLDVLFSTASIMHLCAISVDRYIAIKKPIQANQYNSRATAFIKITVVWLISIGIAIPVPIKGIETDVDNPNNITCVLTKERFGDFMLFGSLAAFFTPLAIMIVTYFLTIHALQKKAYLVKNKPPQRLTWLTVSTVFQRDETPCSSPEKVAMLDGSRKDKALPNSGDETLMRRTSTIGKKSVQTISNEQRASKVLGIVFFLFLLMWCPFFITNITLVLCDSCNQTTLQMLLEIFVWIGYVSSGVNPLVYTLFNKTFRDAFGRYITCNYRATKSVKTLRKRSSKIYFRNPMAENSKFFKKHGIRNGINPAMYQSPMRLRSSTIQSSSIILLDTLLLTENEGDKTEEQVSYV
Another test has as its target Histamine H2 receptor (Homo sapiens, UniProt P25021). It is filed as functional, cell-based.
Test [4] concerns the target Vascular endothelial growth factor receptor 2 (Homo sapiens, UniProt P35968). Format: functional.
Test [5] deals with Growth hormone secretagogue receptor type 1 (Homo sapiens, UniProt Q92847).
Sequence of Growth hormone secretagogue receptor type 1 (Q92847 whole entry): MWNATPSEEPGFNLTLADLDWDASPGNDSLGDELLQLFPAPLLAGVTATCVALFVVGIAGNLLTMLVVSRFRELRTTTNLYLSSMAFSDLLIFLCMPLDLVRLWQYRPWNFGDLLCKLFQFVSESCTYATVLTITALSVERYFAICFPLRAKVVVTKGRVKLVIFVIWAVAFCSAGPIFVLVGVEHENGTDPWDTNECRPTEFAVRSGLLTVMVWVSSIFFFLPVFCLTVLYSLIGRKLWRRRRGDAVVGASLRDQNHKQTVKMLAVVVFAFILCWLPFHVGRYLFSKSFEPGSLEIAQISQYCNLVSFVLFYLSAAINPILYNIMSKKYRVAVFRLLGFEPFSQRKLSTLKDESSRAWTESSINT
In test [6] the target is T4, 5-hydroxytryptamine receptor 2C (Homo sapiens, UniProt P28335).
T4 sequence (P28335 whole entry): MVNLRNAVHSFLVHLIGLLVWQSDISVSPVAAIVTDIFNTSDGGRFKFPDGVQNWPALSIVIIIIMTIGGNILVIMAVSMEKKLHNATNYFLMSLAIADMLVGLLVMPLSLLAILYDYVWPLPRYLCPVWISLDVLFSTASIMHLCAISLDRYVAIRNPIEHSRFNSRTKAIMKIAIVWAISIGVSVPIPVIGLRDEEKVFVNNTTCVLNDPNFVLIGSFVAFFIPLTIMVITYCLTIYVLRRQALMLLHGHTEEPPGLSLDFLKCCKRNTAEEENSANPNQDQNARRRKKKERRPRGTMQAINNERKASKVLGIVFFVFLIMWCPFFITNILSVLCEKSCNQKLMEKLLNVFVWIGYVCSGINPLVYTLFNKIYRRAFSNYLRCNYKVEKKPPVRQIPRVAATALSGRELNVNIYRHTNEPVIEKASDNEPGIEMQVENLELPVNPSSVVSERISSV

For test [7], the target named is T5, Prostaglandin G/H synthase 1 (Rattus norvegicus, UniProt Q63921).
T5 sequence (Q63921 whole entry): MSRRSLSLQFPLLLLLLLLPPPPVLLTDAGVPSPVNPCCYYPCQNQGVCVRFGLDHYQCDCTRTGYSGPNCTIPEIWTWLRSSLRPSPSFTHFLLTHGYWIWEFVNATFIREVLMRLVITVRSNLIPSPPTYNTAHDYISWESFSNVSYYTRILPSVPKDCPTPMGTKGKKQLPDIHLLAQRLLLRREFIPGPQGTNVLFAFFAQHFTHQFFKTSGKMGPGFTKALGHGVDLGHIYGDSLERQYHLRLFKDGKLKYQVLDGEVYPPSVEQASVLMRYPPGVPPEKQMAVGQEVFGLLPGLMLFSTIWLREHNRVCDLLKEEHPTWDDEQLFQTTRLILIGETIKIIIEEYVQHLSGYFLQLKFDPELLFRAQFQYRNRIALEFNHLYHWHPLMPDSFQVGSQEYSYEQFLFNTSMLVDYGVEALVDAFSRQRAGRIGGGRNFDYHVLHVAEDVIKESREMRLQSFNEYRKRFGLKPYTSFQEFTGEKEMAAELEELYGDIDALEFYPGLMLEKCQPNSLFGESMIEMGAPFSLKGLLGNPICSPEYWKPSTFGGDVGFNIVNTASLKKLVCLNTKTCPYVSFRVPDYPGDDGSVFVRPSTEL
Format: functional.

Test [8] deals with Neuronal acetylcholine receptor subunit alpha-4 (Homo sapiens, UniProt P43681).
Sequence of Neuronal acetylcholine receptor subunit alpha-4 (P43681 whole entry): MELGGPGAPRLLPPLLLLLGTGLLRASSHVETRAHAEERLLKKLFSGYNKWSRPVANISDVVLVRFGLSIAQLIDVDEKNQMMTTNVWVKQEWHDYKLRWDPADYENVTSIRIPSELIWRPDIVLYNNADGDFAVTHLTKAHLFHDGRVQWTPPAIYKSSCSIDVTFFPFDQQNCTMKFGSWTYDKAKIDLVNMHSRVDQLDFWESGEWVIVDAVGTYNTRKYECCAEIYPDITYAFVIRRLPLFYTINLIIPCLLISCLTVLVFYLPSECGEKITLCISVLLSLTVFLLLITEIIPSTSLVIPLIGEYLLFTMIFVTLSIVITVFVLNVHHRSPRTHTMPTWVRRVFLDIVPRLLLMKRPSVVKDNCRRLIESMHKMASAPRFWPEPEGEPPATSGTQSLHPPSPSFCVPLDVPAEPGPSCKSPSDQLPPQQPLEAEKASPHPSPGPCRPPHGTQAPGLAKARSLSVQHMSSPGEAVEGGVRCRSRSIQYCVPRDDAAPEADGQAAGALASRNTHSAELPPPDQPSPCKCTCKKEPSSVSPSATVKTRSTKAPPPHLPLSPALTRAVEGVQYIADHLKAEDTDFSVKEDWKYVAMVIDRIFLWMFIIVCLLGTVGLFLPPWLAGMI
Further: assay procedure not described here.

Sequence of Vascular endothelial growth factor receptor 2 (P35968 whole entry): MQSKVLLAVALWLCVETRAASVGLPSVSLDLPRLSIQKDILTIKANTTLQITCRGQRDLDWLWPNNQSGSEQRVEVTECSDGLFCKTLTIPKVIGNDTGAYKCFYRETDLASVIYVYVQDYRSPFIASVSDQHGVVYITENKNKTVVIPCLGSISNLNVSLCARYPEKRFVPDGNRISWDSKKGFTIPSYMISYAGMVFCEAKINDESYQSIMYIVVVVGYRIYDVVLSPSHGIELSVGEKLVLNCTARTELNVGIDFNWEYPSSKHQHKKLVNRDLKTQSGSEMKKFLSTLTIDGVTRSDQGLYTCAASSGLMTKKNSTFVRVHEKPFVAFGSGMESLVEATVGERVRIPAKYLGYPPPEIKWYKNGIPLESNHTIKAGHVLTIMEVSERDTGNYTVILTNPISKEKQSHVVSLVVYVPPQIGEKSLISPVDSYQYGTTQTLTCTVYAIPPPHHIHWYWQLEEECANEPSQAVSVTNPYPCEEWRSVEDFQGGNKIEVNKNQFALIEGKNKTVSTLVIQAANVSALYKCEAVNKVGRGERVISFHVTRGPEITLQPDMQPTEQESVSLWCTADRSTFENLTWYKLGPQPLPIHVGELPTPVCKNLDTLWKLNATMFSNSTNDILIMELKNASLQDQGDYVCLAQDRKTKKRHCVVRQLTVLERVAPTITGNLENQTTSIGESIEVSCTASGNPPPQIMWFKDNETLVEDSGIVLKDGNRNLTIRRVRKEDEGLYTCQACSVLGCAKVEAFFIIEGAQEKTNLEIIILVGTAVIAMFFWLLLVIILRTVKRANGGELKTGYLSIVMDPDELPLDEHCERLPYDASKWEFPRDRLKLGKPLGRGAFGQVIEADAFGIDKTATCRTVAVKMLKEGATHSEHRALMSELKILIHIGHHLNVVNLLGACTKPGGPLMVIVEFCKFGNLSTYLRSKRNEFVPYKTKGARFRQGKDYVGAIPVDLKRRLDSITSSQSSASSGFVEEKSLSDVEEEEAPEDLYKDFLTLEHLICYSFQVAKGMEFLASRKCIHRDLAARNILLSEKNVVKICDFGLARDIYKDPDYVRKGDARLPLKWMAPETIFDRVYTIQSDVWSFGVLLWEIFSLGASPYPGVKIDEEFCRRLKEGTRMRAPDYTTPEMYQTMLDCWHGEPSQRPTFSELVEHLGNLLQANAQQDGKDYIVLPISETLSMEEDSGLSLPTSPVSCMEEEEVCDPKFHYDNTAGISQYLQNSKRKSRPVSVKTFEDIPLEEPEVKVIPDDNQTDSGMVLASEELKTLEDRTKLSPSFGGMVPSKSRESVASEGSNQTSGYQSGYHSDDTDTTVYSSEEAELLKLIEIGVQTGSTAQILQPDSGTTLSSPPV
Sequence of Histamine H2 receptor (P25021 whole entry): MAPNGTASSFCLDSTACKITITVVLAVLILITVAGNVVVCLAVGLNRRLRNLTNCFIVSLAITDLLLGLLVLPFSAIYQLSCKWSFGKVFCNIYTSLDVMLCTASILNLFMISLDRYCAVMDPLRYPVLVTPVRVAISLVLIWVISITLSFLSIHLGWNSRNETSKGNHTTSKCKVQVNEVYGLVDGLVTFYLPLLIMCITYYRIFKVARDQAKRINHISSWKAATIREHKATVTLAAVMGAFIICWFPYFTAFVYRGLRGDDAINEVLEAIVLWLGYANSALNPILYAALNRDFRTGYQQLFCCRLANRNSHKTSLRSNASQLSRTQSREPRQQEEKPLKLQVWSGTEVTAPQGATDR

For the compound `CCn1cc(C(=O)O)c(=O)c2cc(F)c(N3CCNCC3)nc21` [ENOXACIN], the AC50 in test [1] is more than 10 µM; in test [2], more than 10 µM; at Adenosine receptor A3, more than 30 µM; at D(1A) dopamine receptor, more than 10 µM; in [3] it was more than 10 µM; at Histamine H2 receptor it was more than 10 µM. Also, the AC50 in test [4] was more than 30 µM; in test [5], more than 30 µM; in [6], more than 10 µM; in [7] it was more than 30 µM; in test [8] it was more than 10 µM.
With `c1ccc2c(CC3=NCCN3)cccc2c1` [NAPHAZOLINE], the AC50 was 0.14 µM in test [1] and more than 30 µM in [4].
As for `CNC(=O)Oc1ccc2c(c1)[C@]1(C)CCN(C)[C@@H]1N2C` [PHYSOSTIGMINE], the AC50 (in [1]; in [2]; on Adenosine receptor A3; on D(1A) dopamine receptor; in [3]; on Histamine H2 receptor) was more than 30 µM in each case. Also, the AC50 in [4], in test [5], in test [6], in [7] and in test [8] was more than 30 µM each time.
`CCCC(=O)O[C@H]1[C@H](C)O[C@@H](O[C@H]2[C@H](N(C)C)[C@@H](O)[C@H](O[C@H]3[C@@H](CC=O)C[C@@H](C)[C@@H](O)/C=C/C=C/C[C@@H](C)OC(=O)C[C@@H](O)[C@@H]3OC)O[C@@H]2C)C[C@@]1(C)OC(=O)CC` [ROKITAMYCIN]: in test [4], the AC50 was more than 30 µM.
On the same count and under the same terms, as for `CCCCCCCCCCCCCCCCCC(=O)NCCCC[C@H](NC(=O)CC[C@@H](NC(=O)[C@H](C)NC(=O)[C@@H](C)O[C@H]1[C@H](O)[C@@H](CO)OC(O)[C@@H]1NC(C)=O)C(N)=O)C(=O)O` (some centres undefined) [ROMURTIDE], the figure is more than 30 µM; as for `O=C(Oc1ccccc1C(=O)O)c1ccccc1O` [SALSALATE], more than 30 µM; as for `COc1cc([C@@H]2c3cc4c(cc3[C@@H](O[C@@H]3O[C@@H]5CO[C@@H](c6cccs6)O[C@H]5[C@H](O)[C@H]3O)[C@H]3COC(=O)[C@H]23)OCO4)cc(OC)c1O` [TENIPOSIDE], more than 30 µM.
The same measure, in the same setting: as for `c1ccc2[nH]c(-c3cscn3)nc2c1` [THIABENDAZOLE], the figure is more than 30 µM.
`CCSc1ccc2c(c1)N(CCCN1CCN(C)CC1)c1ccccc1S2` [THIETHYLPERAZINE]: the AC50 is more than 10 µM on Adenosine receptor A3, more than 30 µM in test [4], more than 30 µM in [7] and more than 3 µM in [8].
The compound `C[C@@H]1C[C@H]2[C@@H]3CCC4=CC(=O)C=C[C@]4(C)C3=CC[C@]2(C)[C@H]1C(=O)CN1CCN(c2cc(N3CCCC3)nc(N3CCCC3)n2)CC1` [TIRILAZAD] showed a concentration at half-maximal activity (AC50) in test [4] of more than 30 µM.

Broadly, the AC50 is the concentration giving half of the maximal activity seen. A higher AC50 goes with weaker potency.
